The results in this text go back to patent US12083109B2, “Neurokinin antagonists and uses thereof” (California Institute of Technology, priority 2017, dated 2024).

The target of this experiment is T1, hM4DREADD in Tac2+ neurons (Homo sapiens, UniProt P08173, A203G/Y113C).
T1 construct: host or cells: Tac2+ neurons of Tac2-Cre mice (dBNSTa, DMH or CeA), transduced in vivo with AAV2-EF1a-DIO-hM4D-mCherry
T1 sequence (P08173 1-479 Y113C/A203G): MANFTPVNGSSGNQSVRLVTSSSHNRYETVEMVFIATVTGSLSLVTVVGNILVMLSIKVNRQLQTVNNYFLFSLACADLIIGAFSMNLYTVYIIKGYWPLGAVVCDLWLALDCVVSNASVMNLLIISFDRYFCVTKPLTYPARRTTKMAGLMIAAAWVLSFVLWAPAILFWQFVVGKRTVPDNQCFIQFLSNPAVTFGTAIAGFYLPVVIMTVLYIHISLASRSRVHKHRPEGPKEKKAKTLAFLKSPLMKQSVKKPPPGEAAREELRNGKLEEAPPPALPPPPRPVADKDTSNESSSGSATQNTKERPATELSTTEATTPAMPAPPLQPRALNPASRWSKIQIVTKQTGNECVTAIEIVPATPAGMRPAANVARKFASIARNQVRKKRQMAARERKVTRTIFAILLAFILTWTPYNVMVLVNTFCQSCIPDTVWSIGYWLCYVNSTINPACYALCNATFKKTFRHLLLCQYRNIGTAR
Put plainly: Tone fear test, CNO silencing of Tac2+ neurons (hM4DREADD). Type of experiment: in vivo, mouse. Here is the method: The protocol for tone trace fear conditioning was performed as previously described (Cushman et al., 2014; incorporated by reference in its entirety) using fear conditioning boxes previously described in detail (Haubensak et al., 2010; Kunwar et al., 2015; incorporated by reference in their entirety). Briefly, mice were transported in squads of four on a white cart to a novel behavioral testing room containing 4 sound-attenuating fear-conditioning chambers (Med Associates). This “training context” was comprised of flat grid flooring (wired to a shock generator and scrambler for footshock delivery, Med Associates), houselights, and the presence of an internal fan for background noise. Chambers were sprayed with 70% Simple Green solution on the underlying chamber pan to generate a unique contextual scent and chambers were cleaned with 70% EtOH between squads. Trace fear conditioning consisted of a 3 minute baseline period followed by 3 tone-shock trials consisting of a 20 second tone conditional stimulus (CS; 75 dB, 2800 Hz), a 20 second trace interval and a 2 second footshock unconditional stimulus (US; 0.7 mA). The inter-trial interval (ITI) between trials was 60 seconds. Mice remained in the chambers an additional 60 seconds before being transported back to the vivarium. The following day, mice were transported in fresh cardboard boxes to a novel behavioral testing room consisting of 4 distinct fear-conditioning boxes to test for tone fear. […] Freezing behavior during the baseline period as well as during each tone presentation (“during”) and trace interval (“post”) were assessed as previously described (Zelikowsky et al., 2014; incorporated by reference in its entirety) using automated near-infrared video tracking equipment and computer software (VideoFreeze, Med Associates). Shock reactivity (motion, arbitrary units) was measured during the 2 second shock US as well as the 3 seconds immediately following. […]

Entries after “also recorded” stand apart in the source; their conditions may differ.

As for `C[N+]1([O-])CCN(C2=Nc3cc(Cl)ccc3Nc3ccccc32)CC1` [CNO, clozapine-N-oxide], the “acute (during) freezing to conditioned tone” value (SIS Tac2-Cre mice, hM4DREADD in CeA, CNO 5 mg/kg i.p.) is on record as “blocked; also recorded: suppressed”. In addition, under “SIS Tac2-Cre mice, hM4DREADD in dBNSTa, CNO 5 mg/kg i.p.”, the “persistent (post) freezing to conditioned tone” value was “blocked; also recorded: selectively attenuated”. The “tone fear test freezing in mCherry control virus mice” value (SIS mice, AAV2-EF1a-DIO-mCherry control virus in dBNSTa (no hM4DREADD), CNO vs vehicle) is “had no effect; also recorded: did not observe any effects; also recorded: no significant effects”.
